This passage reports T/C results from PubChem BioAssay AID330 (DTP/NCI, 2004).

This assay concerns P388 leukemia ip, CD2F1 mice, survival T/C. Nature of the assay: NCI In Vivo Anticancer Drug Screen. Data for tumor model P388 Leukemia (intraperitoneal) in CD2F1 (CDF1) mice. Particulars: endpoint: median survival time, higher = longer survival. In short, it runs like this:
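Mice carrying the transplanted tumor received test compound or vehicle. Survival was recorded in each group, and the value is the treated-group measurement divided by that of the vehicle-treated control group.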

Where [1] appears, read: dose: 25.0 mg/kg/injection, schedule: Q01DX009 (ip), vehicle: distilled water + Tween-80.
The mark [2] stands for this setting: dose: 50.0 mg/kg/injection, schedule: Q01DX009 (ip), vehicle: distilled water + Tween-80.
[3] abbreviates: dose: 100.0 mg/kg/injection, schedule: Q01DX009 (ip), vehicle: distilled water + Tween-80.
The mark [4] stands for this setting: dose: 200.0 mg/kg/injection, schedule: Q01DX009 (ip), vehicle: distilled water + Tween-80.
Where [5] appears, read: dose: 2.5 mg/kg/injection, schedule: Q01DX009 (ip), vehicle: saline with Tween-80.
Setting [6] is: dose: 100.0 mg/kg/injection, schedule: Q01DX009 (ip), vehicle: Klucel (hydroxypropylcellulose) (HPC).
The mark [7] stands for this setting: dose: 200.0 mg/kg/injection, schedule: Q01DX009 (ip), vehicle: Klucel (hydroxypropylcellulose) (HPC).
[8] abbreviates: dose: 25.0 mg/kg/injection, schedule: Q04DX003 (ip), vehicle: saline.
[9] abbreviates: dose: 50.0 mg/kg/injection, schedule: Q04DX003 (ip), vehicle: saline.
[10] abbreviates: dose: 100.0 mg/kg/injection, schedule: Q04DX003 (ip), vehicle: saline.
The mark [11] stands for this setting: dose: 60.0 mg/kg/injection, schedule: Q01DX005 (ip), vehicle: saline with Tween-80.
The mark [12] stands for this setting: dose: 120.0 mg/kg/injection, schedule: Q01DX005 (ip), vehicle: saline with Tween-80.
The mark [13] stands for this setting: dose: 50.0 mg/kg/injection, schedule: Q01DX009 (ip), vehicle: saline.
The mark [14] stands for this setting: dose: 50.0 mg/kg/injection, schedule: Q01DX005 (ip), vehicle: Klucel (hydroxypropylcellulose) (HPC).
[15] abbreviates: dose: 50.0 mg/kg/injection, schedule: Q01DX005 (ip), vehicle: saline with Tween-80.
[16] abbreviates: dose: 100.0 mg/kg/injection, schedule: Q01DX005 (ip), vehicle: saline with Tween-80.
Setting [17] is: dose: 200.0 mg/kg/injection, schedule: Q01DX005 (ip), vehicle: saline with Tween-80.
The mark [18] stands for this setting: dose: 100.0 mg/kg/injection, schedule: Q01DX009 (ip), vehicle: saline.
Setting [19] is: dose: 200.0 mg/kg/injection, schedule: Q01DX009 (ip), vehicle: saline.
Setting [20] is: dose: 50.0 mg/kg/injection, schedule: Q01DX009 (ip), vehicle: Klucel (hydroxypropylcellulose) (HPC).
Where [21] appears, read: dose: 50.0 mg/kg/injection, schedule: Q01DX009 (ip), vehicle: other.
Where [22] appears, read: dose: 100.0 mg/kg/injection, schedule: Q01DX009 (ip), vehicle: other.

Where “and” joins values, the source holds several entries; their conditions need not be identical. Equal values may be shown once. Inconclusive results and toxic doses are left out.

Regarding `COc1ccc([N+](=O)[O-])c(/C=C/C(=O)c2ccccn2)c1`, the T/C by setting is: (dose: 12.5 mg/kg/injection, schedule: Q01DX009 (ip), vehicle: distilled water + Tween-80) 98 % of control; under setting [1], 100 % of control; under setting [2], 97 % of control; under setting [3], 98 % of control; under setting [4], 104 % of control.

`CCOC(=O)N(CCCl)N=O`: the T/C (dose: 0.31 mg/kg/injection, schedule: Q01DX009 (ip), vehicle: saline with Tween-80) was 114 % of control; the T/C (dose: 0.62 mg/kg/injection, schedule: Q01DX009 (ip), vehicle: saline with Tween-80) is 118 % of control; the T/C under setting [5] was 96 % of control.

For the compound `CCCCOC(=O)C1C(C(=O)OCCCC)C2(Cl)C(Cl)=C(Cl)C1(Cl)C2(Cl)Cl` (centres undefined), the T/C under setting [6] was 97 % of control; the T/C under setting [7] is 104 % of control; the T/C (dose: 400.0 mg/kg/injection, schedule: Q01DX009 (ip), vehicle: Klucel (hydroxypropylcellulose) (HPC)) is 111 % of control.

In the case of `COC(=O)C[CH2][Sn]([Cl])([Cl])[Cl]`, the T/C under setting [8] is 98 % of control; the T/C under setting [9] is 100 % of control; the T/C under setting [10] is 100 % of control and 96 % of control.

As to `O=C(Nc1c(Cl)cc(Cl)cc1Cl)ON=C1CCCCC1`, the T/C is, setting by setting: under setting [11], 96 % of control; under setting [12], 102 % of control.

As to `CCN(CC)CCCNc1c(OC)cc(C)c2sc3ccccc3c(=O)c12`, the T/C under setting [13] was 102 % of control.

For the compound `CCN(CC)CCN1CC(=O)N2CCCCN2C(=O)C1`, the T/C is, setting by setting: (dose: 50.0 mg/kg/injection, schedule: Q01DX005 (ip), vehicle: saline) 104 % of control; (dose: 100.0 mg/kg/injection, schedule: Q01DX005 (ip), vehicle: saline) 102 % of control; (dose: 200.0 mg/kg/injection, schedule: Q01DX005 (ip), vehicle: saline) 95 % of control.

In the case of `Fc1ccc(N2C(c3ccccc3)=N[C@@H](N3CCCCC3)[C@@H]2N2CCCCC2)cc1`, the T/C runs as follows: under setting [14], 102 % of control; (dose: 100.0 mg/kg/injection, schedule: Q01DX005 (ip), vehicle: Klucel (hydroxypropylcellulose) (HPC)) 99 % of control; (dose: 200.0 mg/kg/injection, schedule: Q01DX005 (ip), vehicle: Klucel (hydroxypropylcellulose) (HPC)) 100 % of control.

As to `COc1ccc(/C=N/Nc2cc(C)nc3ccc(F)cc23)c2ccccc12`, the T/C reads like this: (dose: 12.5 mg/kg/injection, schedule: Q01DX005 (ip), vehicle: Klucel (hydroxypropylcellulose) (HPC)) 97 % of control; (dose: 25.0 mg/kg/injection, schedule: Q01DX005 (ip), vehicle: Klucel (hydroxypropylcellulose) (HPC)) 98 % of control; under setting [14], 99 % of control.

For the compound `CC1=C(C(=O)OCc2ccccc2)C(c2cccnc2)C(C(=O)OCc2ccccc2)=C(C)N1`, the T/C is, setting by setting: under setting [1], 91 % of control; under setting [2], 100 % of control; under setting [3], 100 % of control; under setting [4], 98 % of control; (dose: 400.0 mg/kg/injection, schedule: Q01DX009 (ip), vehicle: distilled water + Tween-80) 105 % of control.

As to `CN1Cc2cc(Cl)ccc2N(C)Cc2cc(Cl)ccc21`, the T/C reads like this: under setting [15], 101 % of control; under setting [16], 90 % of control; under setting [17], 92 % of control.

Consider `COC(=O)CS(=O)(=O)CCCS(=O)(=O)CC(=O)OC`, for which the T/C is, setting by setting: under setting [13], 105 % of control; under setting [18], 99 % of control; under setting [19], 103 % of control.

For `Nc1ccc2nnnn2n1`, the T/C under setting [13] was 100 % of control, the T/C under setting [18] was 98 % of control and the T/C under setting [19] is 98 % of control.

For `CC(NC(=O)OC(C)(C)C)C(=O)NC(C)C(=O)NC(C)C(=O)Nc1ccc([N+](=O)[O-])cc1` (centres undefined), the T/C is, setting by setting: under setting [15], 94 % of control; under setting [16], 92 % of control; under setting [17], 87 % of control.

In the case of `Cn1cnc2cc(N3CCOCC3)c(N)cc2c1=O`, the T/C reads like this: (dose: 100.0 mg/kg/injection, schedule: Q04DX002 (ip), vehicle: Klucel (hydroxypropylcellulose) (HPC)) 106 % of control; (dose: 200.0 mg/kg/injection, schedule: Q04DX002 (ip), vehicle: Klucel (hydroxypropylcellulose) (HPC)) 102 % of control; (dose: 400.0 mg/kg/injection, schedule: Q04DX002 (ip), vehicle: Klucel (hydroxypropylcellulose) (HPC)) 102 % of control.

With `CCN(C(=S)Nc1cccc(C(F)(F)F)c1)c1ccccc1`, the T/C under setting [20] is 101 % of control and the T/C under setting [6] was 108 % of control.

In the case of `O=P(c1ccccc1)(c1ccccc1)c1ccccc1.[CH3][Sn]([Cl])([Cl])[c]1ccccc1`, the T/C (dose: 12.5 mg/kg/injection, schedule: Q04DX003 (ip), vehicle: saline) was 100 % of control and 118 % of control; the T/C under setting [8] is 100 % of control and 104 % of control; the T/C under setting [9] is 100 % of control and 101 % of control; the T/C under setting [10] is 100 % of control and 110 % of control.

For `C(=C\c1ccc2c(c1)OCO2)/c1ccnnc1`, the T/C runs as follows: under setting [13], 100 % of control; under setting [18], 97 % of control; under setting [19], 100 % of control.

Consider `Cc1ccc(CNc2cc(C)ccn2)cc1`, for which the T/C is, setting by setting: under setting [21], 109 % of control; under setting [22], 109 % of control.

Consider `NC=NCC(=O)O`, for which the T/C was 96 % of control under setting [13], 100 % of control under setting [18] and 99 % of control under setting [19].

On to `C=[CH][Pb]([CH]=C)([CH]=C)[O]C(C)=O`, for which the T/C was 110 % of control and 111 % of control (dose: 1.25 mg/kg/injection, schedule: Q01DX009 (ip), vehicle: saline with Tween-80); 160 % of control under setting [5]; 151 % of control and 188 % of control (dose: 5.0 mg/kg/injection, schedule: Q01DX009 (ip), vehicle: saline with Tween-80).

Take `C/C=C/C(=O)Nc1ncc([N+](=O)[O-])s1`: the T/C is 111 % of control under setting [20], 114 % of control under setting [6] and 113 % of control under setting [7].

On to `O=C(COc1ccccc1)NC(=S)Nc1nccs1`, for which the T/C was 96 % of control under setting [11]; 93 % of control under setting [12]; 102 % of control (dose: 240.0 mg/kg/injection, schedule: Q01DX005 (ip), vehicle: saline with Tween-80).

Regarding `C=CCSc1nc2ccc(NC(=O)/C=C/C(=O)O)cc2s1`, the T/C runs as follows: under setting [20], 95 % of control; under setting [6], 93 % of control; under setting [7], 102 % of control.

On to `COc1cc2c(cc1OC)/C(=N/N=C1\CCCc3cc(OC)c(OC)cc31)CCC2`, for which the T/C (dose: 6.25 mg/kg/injection, schedule: Q01DX009 (ip), vehicle: other) is 93 % of control; the T/C (dose: 6.25 mg/kg/injection, schedule: Q01DX009 (ip), vehicle: water) was 98 % of control; the T/C (dose: 12.5 mg/kg/injection, schedule: Q01DX009 (ip), vehicle: other) is 92 % of control; the T/C (dose: 12.5 mg/kg/injection, schedule: Q01DX009 (ip), vehicle: water) is 86 % of control; the T/C (dose: 25.0 mg/kg/injection, schedule: Q01DX009 (ip), vehicle: other) was 92 % of control; the T/C (dose: 25.0 mg/kg/injection, schedule: Q01DX009 (ip), vehicle: water) is 86 % of control. The T/C runs as follows: under setting [21], 90 % of control; under setting [22], 88 % of control; (dose: 100.0 mg/kg/injection, schedule: Q01DX009 (ip), vehicle: water) 91 % of control.

Regarding `CN(C)N=Nc1cccc(C(N)=O)c1`, the T/C (dose: 6.25 mg/kg/injection, schedule: Q01DX009 (ip), vehicle: Klucel (hydroxypropylcellulose) (HPC)) is 100 % of control; the T/C (dose: 12.5 mg/kg/injection, schedule: Q01DX009 (ip), vehicle: Klucel (hydroxypropylcellulose) (HPC)) was 110 % of control; the T/C (dose: 25.0 mg/kg/injection, schedule: Q01DX009 (ip), vehicle: Klucel (hydroxypropylcellulose) (HPC)) is 116 % of control; the T/C under setting [20] is 112 % of control; the T/C under setting [6] is 93 % of control.

In the case of `C#CC(OS(=O)(=O)C(F)(F)F)=C1C2CC3CC(C2)CC1C3`, the T/C reads like this: under setting [15], 100 % of control; under setting [16], 98 % of control; under setting [17], 100 % of control.
